Patent US20070219213A1, “Use of Adrenergic N-Phenylpiperazine Antagonists, Pahrmaceutical Compositions Containning Them, and Methods of Preparing Them” (priority 2004, published 2007)
Entries after “also recorded” stand apart in the source; their conditions may differ.

Legend:
[1] = system: muscarinic cholinergic receptors; experiment: Cobaio (guinea pig) trachea contraction induced by carbacol; type: cell-based; details: 30 microM compound, carbacol 10 microM
From the text: Selectivity Assay for Protein G-Coupled, Beta-Adrenergic, Muscarinic Cholinergic and Histaminergic Bioreceptors
Determination of the Inhibitory Potency (IC50) of LASSBio 772 on Vasoconstriction of the Cobaio (Guinea Pig) Trachea
Cobaios albinos from both sexes, weighing between 400 and 600 g were used in this experiment. The animals were sacrificed by cervical displacement and posterior bleed. Then, their tracheas were removed, kept in 5 microM indometacin added Krebs-Henseleit physiologic solution and oxygenated with carbogenic mixture (95% O2 and 5% CO2), proceeding the removal of the connective and adhered adipose tissue. From these tracheas were obtained segments with 4-6 rings, that are sectioned in the opposite side of the smooth musculature, originating strips used in the contractions assay (ARAKIDA et al., J. Pharmacol. Exper. Therap., 287: 633-639, 1998). […]
After the period, the organ is treated with agonists that will induce contractions. […] The tissue viability was evaluated by contraction induction with histamine 100 microM or carbacol 10 microM. […]
The compound LASSBio 772 was evaluated in the concentration of 30 microM as for its relaxation capability in comparison to contractions induced by carbacol, muscarinic cholinergic agonist, at a 10 microM concentration.

alpha 1A subtype = target: T1, alpha 1A subtype (Rattus norvegicus, UniProt P43140); experiment: [3H]prazosin binding assay in rat salivary gland; details: for selectivity index (I.S. alpha 1B/alpha 1A): alpha 1A versus alpha 1B subtype
T1 sequence (P43140 1-466): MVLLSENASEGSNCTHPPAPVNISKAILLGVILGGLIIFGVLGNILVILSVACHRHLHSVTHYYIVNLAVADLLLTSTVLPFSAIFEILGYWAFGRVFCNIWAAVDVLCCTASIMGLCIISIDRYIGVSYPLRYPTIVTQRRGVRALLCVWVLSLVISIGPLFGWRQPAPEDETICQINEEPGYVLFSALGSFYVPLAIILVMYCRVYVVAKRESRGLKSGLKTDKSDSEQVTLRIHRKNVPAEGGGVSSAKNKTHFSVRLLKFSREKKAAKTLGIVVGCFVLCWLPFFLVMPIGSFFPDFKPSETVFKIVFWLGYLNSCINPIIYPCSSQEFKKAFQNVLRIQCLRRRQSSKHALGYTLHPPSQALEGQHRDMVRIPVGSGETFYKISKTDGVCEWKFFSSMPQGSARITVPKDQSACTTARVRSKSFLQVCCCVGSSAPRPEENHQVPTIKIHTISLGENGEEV

[2] = system: phenylephrine vasopressor effects; experiment: Inhibition of phenylephrine vasopressor effects in anesthetized rabbits; type: in vivo; details: rabbit, i.v., versus control curve
Protocol: Animal and Homodynamic Measurements:
The experiments were performed with male rabbits weighing 3 kg, from the CECAL (Centro de Criação de Animais de Laboratório) at Fundação Oswaldo Cruz. The animals were anesthetized with sodium pentobarbital (40 mg/kg) in the ear marginal vein, and anesthesia maintenance was obtained with supplemental intravenous (i.v.) doses of 5 mg/kg as necessary. The […] were tracheomized, inserted with a polyethylene canule, and immobilized with pancuronium bromide (1 mg/kg, i.v.), with supplemental doses of 0.2 mg/kg for each hour of experiment and artificially ventilated with a mechanical fan (Rodent ventilator 7025, Ugo Basile) with a volume of 10 ml/kg and frequency from 40 to 50 incursions/min. The right femoral vein was catheterized for drug administration.
The arterial pressure was monitored through abdominal aorta catheter via the right femoral artery and connected to a quartz transductor Hewlett Packard (1290 A), which was connected to an arterial pressure processor and recorder Hewlett Packard (system 7754 with amplifier 8805 B).
The systolic (SAP) and diastolic (DAP) arterial pressures were obtained directly from the records and the average arterial pressure (AAP) was calculated by DAP's Sum with a third of the differential pressure [[…]]. The cardiac frequency was determined by counting the pressure waves, visualized with the speed increase of the recorder paper.
The cardiac debit (DC) was monitored using an electromagnetic probe, connected to a Skalar flowmeter model MDL 1401. After left thoraxatomy, between the second and third ribs, was made an incision in the pericardium and the heart was exposed to enable the visualization and dissection of the ascending aorta for installation of the electromagnetic probe. The systemic vascular resistance (SVR) was calculated as a quotient of the average arterial pressure by the cardiac debit, multiplied by a conversion factor 80 (SVR=AAP/DC×80) and expressed in dyn/seg/cm-5.
At the conclusion of the anesthetic-surgical procedures, a 15-minute period was allowed for stabilization of the homodynamic parameters. Before any pharmacological manipulation the average arterial pressure, cardiac frequency and cardiac debit measurements were obtained. These values were considered basal homodynamic values.
Dose-Response Curve of the Phenylephrine Vasopressor Effect:
After surgical procedures and stabilization of the homodynamic parameters, a dose-response curve of the phenylephrine pressure effects was performed ([…], i.v.), that were named control curves. […]
The results were expressed as average±standard deviation (E.P.M.) The administration effects of LASSBio 772 with regard to the basal values were analyzed through variance analysis (ANOVA) for repeated measurements. […]

## COc1ccccc1N1CCN(CCc2ccc3c(c2)OCO3)CC1 [LASSBio 772, 1-(2-1,3-Benzodioxol-5-yl-ethyl)-4-(2-methoxy-phenyl)-piperazine]
[1]
  inhibition of carbacol-induced contractions: not able to significantly inhibit the contractions; also recorded: did not present any activity
[1]; n=3
  % of Contraction: 122.1±8.6%
Alpha 1A subtype
  IC50: 0.26 nM
  selectivity indexes of alpha 1A/alpha 1D versus alpha 1B subtype and beta 2, H1 and cholinergic muscarinic receptors: at least a thousand times
  selectivity index (I.S. alpha 1B/alpha 1A): ≥ 1700
Alpha 1A subtype; listed as LASSBio-772
  selectivity index (I.S. alpha 1B/alpha 1A): 1730
Alpha 1A subtype; rat salivary gland, Cheng Prussof
  Ki: 0.14 nM
[2]
  blockade of phenylephrine effects: significantly blocked; also recorded: prevented the phenylephrine hypo-tensor effect
